In patent EP4585599A1, “NITROGEN-CONTAINING FUSED RING COMPOUND, INTERMEDIATE THEREOF, PREPARATION METHOD THEREFOR AND USE THEREOF” (Hangzhou Synrx Therapeutics Biomedical Technology Co., Ltd., priority 2022, dated 2024):
pIC50: −log10 of the molar value. Like-named read-outs stand apart in the source and are kept apart here.

Columns and labels:
cells = conditions: Homo sapiens, DLD-1, 240 h
[1] = molecular target: T1, helicase domain of the Pol θ protein (Homo sapiens, UniProt O75417); assay: Biochemical Activity Assay (ADP Glo Assay) of Pol θ inhibitor, ATPase activity; conditions: for pIC50: ssDNA substrate, read-out: Biochemical assay IC50; for IC50: Biochemical assay IC50 (nM)
T1 construct: The helicase domain of the Pol θ protein was purified from insect protein expression system; made in house; host or cells: insect protein expression system

[2] = read-out: Cell viability assay IC50 (nM), CTG assay, CellTiter Glo, read on Day 10, cell line not given
[3] = read-out: Cell viability assay IC50 (nM), CTG on Day 10, cell line not given (method: DLD1 and DLD1^-/- cells)
[4] = ADP-Glo assay, ATPase activity of Pol θ helicase domain
[5] = ADP-Glo, 60 min at room temperature
[6] = read-out: Cell viability assay IC50 (nM)

T1 sequence (O75417 102-554 limits assumed): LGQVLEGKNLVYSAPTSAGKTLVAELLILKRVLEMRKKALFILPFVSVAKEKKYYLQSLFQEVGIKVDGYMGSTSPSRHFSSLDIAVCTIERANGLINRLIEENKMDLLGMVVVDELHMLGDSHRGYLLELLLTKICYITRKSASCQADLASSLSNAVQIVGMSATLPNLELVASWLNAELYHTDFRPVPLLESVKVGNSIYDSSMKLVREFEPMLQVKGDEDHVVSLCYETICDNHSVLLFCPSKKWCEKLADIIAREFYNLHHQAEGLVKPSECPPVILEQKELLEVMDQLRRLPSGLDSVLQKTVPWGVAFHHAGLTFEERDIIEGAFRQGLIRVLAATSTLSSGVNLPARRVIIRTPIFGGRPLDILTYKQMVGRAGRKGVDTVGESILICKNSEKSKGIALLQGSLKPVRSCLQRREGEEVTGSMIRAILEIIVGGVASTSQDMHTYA

Row | SMILES | pIC50 [1, 4] | pIC50 [1, 5] | IC50 (cells; [2]) [nM] | IC50 (cells; [3]) [nM] | IC50 (cells; [6]) [nM] | IC50 [1] [nM]
1 | COc1cnc(Cl)cc1-c1cc(C)ncc1C(=O)Nc1nc2cnc(-c3nnc(C)o3)cc2s1 [Example 206] | 8.63 |  | 13.6 |  |  | 
2 | COc1cnc(Cl)cc1-c1cc(C)ncc1C(=O)Nc1nc2cc(F)c(-c3ccc(P(C)(C)=O)cc3)cc2s1 [Example 85] | 8.74 | > 7.30 | 44.7 | < 100 |  | 
3 | COc1cnc(Cl)cc1-c1cc(C)ncc1C(=O)Nc1nc2ncc(C3=CCOCC3)cc2s1 [Example 14] | 8.56 | > 7.30 | 31.6 | < 100 |  | 
4 | COc1cnc(Cl)cc1-c1cc(C)ncc1C(=O)Nc1nc2ncc(N3CC[C@@H](O)[C@H](F)C3)cc2s1 [Example 101] | 8.42 | > 7.30 | 389 | 100 to 500 |  | 
5 | COc1cnc(Cl)cc1-c1cc(C)ncc1C(=O)Nc1nc2c(=O)[nH]c(-c3c(C)cnn3C)cc2s1 [Example 179, 2'-chloro-N-(6-(1,4-dimethyl-1H-parazol-5-yl)-4-oxo-4,5-dihydrothiazolo[4,5-c]pyridin-2-yl)-5'-methoxy-6-methyl-[4,4'-bipyridine]-3-carboxamide] |  |  |  |  | 562 | 2.43
6 | COc1cnc(Cl)cc1-c1cc(C)ncc1C(=O)Nc1nc2ncc(C3=CCNCC3)cc2s1 [Example 16] | 7.87 | > 7.30 | 2330 | > 1000 |  | 
7 | COc1cnc(Cl)cc1-c1cc(C)ncc1C(=O)Nc1nc2cnc(-c3nn(CCO)cc3C)cc2s1 [Example 221] | 8.32 |  | 1850 |  |  | 
8 | COc1cnc(Cl)cc1-c1cc(C)ncc1C(=O)Nc1nc2ccc(N3CCC(O)C(C)(C)C3)nc2s1 (centres unmarked) [Example 116, 2'-chloro-N-(5-(4-hydroxy-3,3-dimethylpiperidin-1-yl)thiazol[5,4-b]pyridin-2-yl)-5'-me thoxy-6-methyl-[4,4'-bipyridine]-3-carboxamide] |  |  |  |  | 36.9 | 10.3
9 | COc1cnc(Cl)cc1-c1cc(C)ncc1C(=O)Nc1nc2ncc(C3=CCC(N)CC3)cc2s1 (centres unmarked) [Example 21] | 8.46 | > 7.30 | 76.4 | < 100 |  | 
10 | Cc1cc(-c2cc(Cl)ncc2OC(F)F)c(C(=O)Nc2nc3ccc(N4CCC(O)CC4)nc3s2)cn1 [Example 130] | 8.16 |  | 11 |  |  | 
11 | COc1cnc(Cl)cc1-c1cc(C)ncc1C(=O)Nc1nc2cc3c(cc2s1)C(=O)N(C)CCC3 [Example 225, 2'-chloro-5'-methoxy-6-methyl-N-(6-methyl-5-oxo-6,7,8,9-tetrahydro-5H-thiazolo[4',5': 4,5]benzo[1,2-c]aza-2-yl)-[4,4'-bipyridine]-3-carboxamide] |  |  |  |  | 56.2 | 21.1
12 | COc1cnc(Cl)c(F)c1-c1cc(C)ncc1C(=O)Nc1nc2cnc(-c3c(C)cnn3C)cc2s1 [Example 210] | 8.61 |  | < 1.52 |  |  | 
13 | COc1cnc(Cl)cc1-c1cc(C)ncc1C(=O)Nc1nc2ncc(N3CCC(O)CC3)cc2s1 [Example 59] | 8.44 | > 7.30 | 82.5 | < 100 |  | 
14 | COc1cnc(Cl)cc1-c1cc(C)ncc1C(=O)Nc1nc2cnc(N3CC4(CC(O)C4)C3)nc2s1 [Example 142] | 8.35 |  | 104 |  |  | 
15 | COc1cnc(Cl)cc1-c1cc(C)ncc1C(=O)Nc1nc2cnc(-c3nnnn3C)cc2s1 [Example 208] | 7.44 |  | 141 |  |  | 
16 | COc1cnc(Cl)cc1-c1cc(C)ncc1C(=O)Nc1nc2ccc(C3=CCC(O)CC3)cc2s1 (centres unmarked) [Example 15] | 8.45 | > 7.30 | 14.7 | < 100 |  | 
17 | COc1cnc(Cl)cc1-c1cc(C)ncc1C(=O)Nc1nc2ccc(C3=CCC(O)CC3)nc2[nH]1 (centres unmarked) [Example 56, 2'-chloro-N-(5-(4-hydroxycyclohex-1-en-1-yl)-3H-imidazo[4,5-b]pyridin-2-yl)-5'-methox y-6-methyl-[4,4'-bipyridine]-3-carboxamide] | 6.65 | 6.30 to 6.70 | 9620 | > 1000 |  | 
18 | COc1cccc(F)c1-c1cc(C)ncc1C(=O)Nc1nc2ccc([C@H]3CC[C@H](O)CC3)nc2s1 [Example 32] | 6.71 | 6.70 to 7.30 | 7080 | > 1000 |  | 
19 | COc1cnc(C(F)F)cc1-c1cc(C)ncc1C(=O)Nc1nc2cnc(-c3nncn3C)cc2s1 [Example 218] |  |  |  |  | 656 | 31.1

Further lines, with some results ahead:

Row | pIC50 [1, 4] | pIC50 [1, 5] | SMILES | IC50 (cells; [2]) [nM] | IC50 (cells; [3]) [nM] | IC50 (cells; [6]) [nM] | IC50 [1] [nM]
20 | 8.25 | > 7.30 | COc1cnc(Cl)cc1-c1cc(C)ncc1C(=O)Nc1nc2ncc(C(=O)N3CCC(O)CC3)cc2s1 [Example 96, 2'-chloro-N-(6-(4-hydroxypiperidin-1-carbonyl)thiazolo[4,5-b]pyridin-2-yl)-5'-methoxy-6-methyl-[4,4'-bipyridine]-3-carboxamide] | 7640 | > 1000 |  | 
21 | 7.80 |  | COc1cnc(Cl)cc1-c1cc(C)ncc1C(=O)Nc1nc2cnc(N3CC[C@@H](O)C[C@@H]3C)nc2s1 [Example 140] | 68.1 |  |  | 
22 | 8.21 | > 7.30 | COc1cnc(Cl)cc1-c1cc(C)ncc1C(=O)Nc1nc2ncc(N3CCC(O)(CO)CC3)cc2s1 [Example 106, 2'-chloro-N-(6-(4-hydroxy-4-(hydroxymethyl)piperidin-1-yl)thiazolo[4,5-b]pyridin-2-yl) -5'-methoxy-6-methyl-[4,4'-bipyridine]-3-carboxamide] | 450 | 100 to 500 |  | 
23 | 8.60 |  | COc1cnc(Cl)c(F)c1-c1cc(C)ncc1C(=O)Nc1nc2cnc(-c3c(C)noc3C)cc2s1 [Example 211] | 3.28 |  |  | 
24 | 8.13 |  | COc1cnc(Cl)cc1-c1cc(C)ncc1C(=O)Nc1nc2cc(F)c(N3CCC(O)CC3)nc2s1 [Example 126] | 9.26 |  |  | 
25 | 8.53 | > 7.30 | COc1cnc(Cl)cc1-c1cc(C)ncc1C(=O)Nc1nc2ncc(N3CC[C@H](O)[C@H](F)C3)cc2s1 [Example 100] | 207 | 100 to 500 |  | 
26 | 8.08 | > 7.30 | COc1cnc(Cl)cc1-c1cc(C)ncc1C(=O)Nc1nc2ncc(N3CCS(=O)(=O)CC3)cc2s1 [Example 50] | 541 | 500 to 1000 |  | 
27 | 7.82 |  | COc1cnc(Cl)cc1-c1cc(C)ncc1C(=O)Nc1nc2ncc(C3=CCC4(CC3)CN(C(C)=O)C4)cc2s1 [Example 184] | 482 |  |  | 
28 | 7.20 |  | COC(=O)c1cc(-c2c(C)cnn2C)cc2sc(NC(=O)c3cnc(C)cc3-c3cc(Cl)ncc3OC)nc12 [Example 162] | 233 |  |  | 
29 | 7.31 | > 7.30 | COc1cnc(Cl)cc1-c1cnccc1C(=O)Nc1nc2ccc([C@H]3CC[C@H](O)CC3)nc2s1 [Example 34] | 2000 | > 1000 |  | 
30 | 7.14 | 6.70 to 7.30 | COc1cnc(Cl)cc1-c1cc(C)ncc1C(=O)Nc1nc2ncc(-c3cnc4[nH]ccc4c3)cc2s1 [Example 19] | 261 | 100 to 500 |  | 
31 | 8.49 | > 7.30 | COc1cnc(Cl)cc1-c1cc(C)ncc1C(=O)Nc1nc2ccc(-c3ccncc3C)nc2s1 [Example 83] | 29.3 | < 100 |  | 
32 | 8.29 |  | COc1cnc(Cl)cc1-c1cc(C)ncc1C(=O)Nc1nc2cc(F)c(-c3ccc(P4(=O)CCCC4)cc3)cc2s1 [Example 190] | 3.28 |  |  | 
33 | 8.31 |  | COc1cnc(Cl)cc1-c1cc(C)ncc1C(=O)Nc1nc2cnc(-c3cncn3C)cc2s1 [Example 171] | 13.1 |  |  | 
34 | 8.29 | > 7.30 | COc1cnc(Cl)cc1-c1cc(C)ncc1C(=O)Nc1nc2ncc(-c3ccc(=O)[nH]c3)cc2s1 [Example 76] |  | > 1000 |  | 
35 | 7.84 | > 7.30 | COc1cnc(Cl)cc1-c1cc(C)ncc1C(=O)Nc1nc2ncc(N3CCC4(CC(O)C4)C3)cc2s1 (centres unmarked) [Example 99] | 138 | 100 to 500 |  | 
36 | 8.74 | > 7.30 | COc1cnc(Cl)cc1-c1cc(C)ncc1C(=O)Nc1nc2cc(F)c(C3=CCC(O)CC3)cc2s1 (centres unmarked) [Example 84] | 2.42 | < 100 |  | 
37 | 8.14 |  | COc1cnc(Cl)cc1-c1cc(C)ncc1C(=O)Nc1nc2ncc(N(C)CCC(C)O)cc2s1 (centres unmarked) [Example 117] | 799 |  |  | 
38 | 7.48 | > 7.30 | COc1cnc(Cl)cc1-c1cc(C)ncc1C(=O)Nc1nc2ccc(C3=CCN(C)CC3)nc2s1 [Example 10] | 446 | 100 to 500 |  | 
39 | 8.19 |  | COc1cnc(Cl)c(F)c1-c1cc(C)ncc1C(=O)Nc1nc2cnc(N3CCC(O)CC3)nc2s1 [Example 200] | 7.07 |  |  | 
40 | 7.82 | > 7.30 | COc1cnc(Cl)cc1-c1cc(C)ncc1C(=O)Nc1nc2ccc(-c3ccn(C)n3)nc2s1 [Example 24] | 192 | 100 to 500 |  | 
41 | 8.40 |  | COc1cnc(Cl)c(F)c1-c1cc(C)ncc1C(=O)Nc1nc2ccc(-c3c(C)nnn3C)cc2s1 [Example 224] | 3.16 |  |  | 
42 | 7.63 |  | COc1cnc(Cl)c(F)c1-c1cc(C)ncc1C(=O)Nc1nc2cc(F)c(N3CCC(F)(F)CC3)nc2s1 [Example 143] | 43 |  |  | 
43 | 6.93 | 6.70 to 7.30 | COc1cnc(Cl)cc1-c1cc(C)ncc1C(=O)Nc1nc2cc(C3=CCC(O)CC3)cnc2s1 (centres unmarked) [Example 2] | 3160 | > 1000 |  | 
44 |  | < 6.30 | COc1cnc(Cl)cc1-c1cc(C)ncc1C(=O)Nc1nc2cc[nH]c2s1 [Example 90, 2'-chloro-5'-methoxy-6-methyl-N-(4H-pyrrolo[3,2-d]thiazol-2-yl)-[4,4'-bipyridine]-3-car boxamide] |  | > 1000 |  | 
